The results in this text go back to US20100144710A1, “Piperazine and Piperidine MGLUR5 Potentiators” (ASTRAZENECA AB, priority 2007, published 2010).

A word on the EC50: it is the concentration at which the effect is half-maximal.

The target of the experiment is T1, human mGluR5d (Homo sapiens, UniProt P41594).
T1 construct: expressed in transfected cells
Description: intracellular calcium [Ca2+]i mobilization (FLIPR) functional assay in cells expressing mGluR5. The class given is cell-based. Conditions: potentiators of mGluR5; 'assays described herein', assay not specified (FLIPR or IP3 turnover). The text has this:
The pharmacological properties of the compounds of the invention can be analyzed using standard assays for functional activity. Examples of glutamate receptor assays are well known in the art as described in for example Aramori et al., Neuron 8:757 (1992), Tanabe et al., Neuron 8:169 (1992), Miller et al., J. Neuroscience 15: 6103 (1995), Balazs, et al., J. Neurochemistry 69:151 (1997). The methodology described in these publications is incorporated herein by reference. Conveniently, the compounds of the invention can be studied by means of an assay that measures the mobilization of intracellular calcium, [Ca^2+]i in cells expressing mGluR5.
Intracellular calcium mobilization was measured by detecting changes in fluorescence of cells loaded with the fluorescent indicator fluo-3. Fluorescent signals were measured using the FLIPR system (Molecular Devices). A two addition experiment was used that could detect compounds that either activate or antagonize the receptor.
For FLIPR analysis, cells expressing human mGluR5d were seeded on collagen coated clear bottom 96-well plates with black sides and analysis of [Ca^2+]i mobilization was done 24 hours after seeding.
FLIPR experiments were performed using a laser setting of 0.800 W and a 0.4 second CCD camera shutter speed. Each FLIPR experiment was initiated with 160 μL of buffer present in each well of the cell plate. After each addition of the compound, the fluorescence signal was sampled 50 times at 1 second intervals followed by 3 samples at 5 second intervals. Responses were measured as the peak height of the response within the sample period.
EC50 and IC50 determinations were made from data obtained from 8-point concentration response curves (CRC) performed in duplicate. Agonist CRC were generated by scaling all responses to the maximal response observed for the plate. Antagonist block of the agonist challenge was normalized to the average response of the agonist challenge in 14 control wells on the same plate.
In general terms: A change in cytosolic calcium serves as a functional read-out for many receptors and channels.

T1 sequence (P41594 21-942 isoform P41594-3 limits assumed): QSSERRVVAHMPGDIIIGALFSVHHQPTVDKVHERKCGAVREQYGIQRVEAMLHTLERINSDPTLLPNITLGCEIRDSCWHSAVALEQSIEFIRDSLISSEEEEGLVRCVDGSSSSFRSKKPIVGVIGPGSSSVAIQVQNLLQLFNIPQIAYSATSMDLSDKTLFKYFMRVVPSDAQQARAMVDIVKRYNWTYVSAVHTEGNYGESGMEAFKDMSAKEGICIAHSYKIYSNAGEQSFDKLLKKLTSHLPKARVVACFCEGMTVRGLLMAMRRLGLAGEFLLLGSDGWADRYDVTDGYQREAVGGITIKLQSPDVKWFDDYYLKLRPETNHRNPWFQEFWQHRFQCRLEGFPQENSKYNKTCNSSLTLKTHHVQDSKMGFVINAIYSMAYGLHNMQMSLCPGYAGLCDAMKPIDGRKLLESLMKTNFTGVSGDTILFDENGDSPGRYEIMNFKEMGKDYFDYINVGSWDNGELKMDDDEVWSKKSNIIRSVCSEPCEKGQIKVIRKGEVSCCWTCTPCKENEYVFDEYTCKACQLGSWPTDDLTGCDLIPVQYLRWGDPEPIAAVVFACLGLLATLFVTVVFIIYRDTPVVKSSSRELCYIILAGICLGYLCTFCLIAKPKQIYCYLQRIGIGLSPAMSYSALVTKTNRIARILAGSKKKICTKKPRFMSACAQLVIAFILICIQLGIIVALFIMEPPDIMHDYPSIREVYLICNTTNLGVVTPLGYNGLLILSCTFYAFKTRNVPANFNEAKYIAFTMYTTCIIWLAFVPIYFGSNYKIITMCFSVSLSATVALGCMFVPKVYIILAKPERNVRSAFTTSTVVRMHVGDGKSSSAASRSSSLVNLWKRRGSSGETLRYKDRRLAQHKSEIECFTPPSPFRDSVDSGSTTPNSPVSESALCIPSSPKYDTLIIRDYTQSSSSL

With `CCCCOc1ccc(CC(=O)N2CCN(c3ncccc3C#N)CC2)cc1` [Compound 1, 2-{4-[2-(4-Butoxy-phenyl)-acetyl]-piperazin-l-yl}-nicotinonitrile], the EC50 was 5.1 µM. In the case of `N#Cc1cccnc1N1CCN(C(=O)COc2ccccc2)CC1` [Compound 12, 2-[4-(2-Phenoxy-acetyl)-piperazin-1-yl]-nicotinonitrile], the EC50 worked out at 3.5 µM. In the case of `CCCOc1ccc(CC(=O)N2CCN(c3ncccc3C#N)CC2)cc1` [Compound 16, 2-{4-[2-(4-Propoxy-phenyl)-acetyl]-piperazin-1-yl}-nicotinonitrile], the EC50 was determined as 2.8 µM. As for `CCCCc1ccc(N(CC(=O)N2CCN(c3nccnc3C#N)CC2)S(C)(=O)=O)cc1` [Compound 44, N-(4-Butyl-phenyl)-N-{2-(3′-cyano-2,3,5,6-tetrahydro-[1,2]bipyrazinyl-4-yl)-2-oxo-ethyl]-methanesulfonamide], the EC50 came out at 5.6 µM. The figure for `N#Cc1cccnc1N1CCN(C(=O)Cc2ccc(OCc3ccccn3)cc2)CC1` [Compound 45, 2-(4-{2-[4′-(Pyridin-2-ylmethoxy)-phenyl]-acetyl}-piperazin-1-yl)-nicotinonitrile] is 3.4 µM.
